Patent US20250339436A1, “CRYSTALLINE FORMS OF MRTX1133” (MIRATI THERAPEUTICS, INC., priority 2024, published 2025)
Entries after “also recorded” stand apart in the source; their conditions may differ. Marks after values point to notes of the source that are not given here. Values belong to the compound of their own block, whether it stands above or below them.

Legend:
Type in all cases: physicochemical
[1] = Accelerated stability study of MRTX1133 amorphous form vs crystalline Forms VIII and IX; details: for stability under the conditions tested (conclusion): 25° C./60% RH and 40° C./75% RH; for trend of impurity values and assay results: all tested storage conditions
Protocol: Chemical stability and water content studies were conducted on amorphous MRTX1133 and MRTX1133 Forms VIII and IX according to well-known methods summarized below.
The stability studies of the amorphous form were done as follows.
The required amount was placed in a clear Class A glass bottle, 24 mL, with closed-top cap, sealed in opaque resealable Zipper bag. Per each storage condition there was one bottle, and the sampling was performed from the same bottle. Each bottle was labeled with protocol number, compound ID, lot number and storage condition.
The experimental conditions for stability testing of Forms VIII and IX were similar. However, the samples were placed in double LDPE bags filled with nitrogen protection, then placed into a heat-sealed foil bag, and into an HDPE container containing desiccant packs.

[2] = Bulk stability studies of MRTX1133 Forms II, VI, VIII and IX (solid state, 1-2 weeks); details: for Initial Purity by UPLC: before storage
Protocol: Stability studies of all four forms were conducted according to well-known methods. The results are summarized below in Tables 4-11.

[3] = Thermogravimetric analysis (TGA)
Protocol: Thermogravimetric Analysis (TGA)
Instrument: Discovery 5500
Parameters: Nitrogen Flow balance 10 mL/min; sample 25 mL/min; start temperature: ambient condition (below 35° C.); final temperature: 300° C.; heating rate: 10° C./min; sample mass ˜2-10 mg. […]

[4] = Dynamic vapor sorption (DVS); details: 25° C./95% RH
Protocol: Dynamic Vapor Sorption (DVS)
Instrument: Intrinsic, Advantage or Adventure;
Total gas flow: 200 sccm; oven temperature: 25° C., solvent: water; method: • Cycle: 40-0-95-0-40% RH • Stage Step: 10% • Equilibrium: 0.002 dm/dt (%/min) Minimum dm/dt stability duration: 60 min • Maximum dm/dt stage time: 360 min

[5] = 40° C./75% RH, 2M, by HPLC, listed as amorphous
[6] = 40° C./75% RH, 3M, by HPLC, listed as amorphous
[7] = 25° C./60% RH, open container, 1 week
[8] = 25° C./60% RH, open container, 2 weeks
[9] = 25° C./92.5% RH, open container, 1 week
[10] = 25° C./92.5% RH, open container, 2 weeks
[11] = 40° C./75% RH, open container, 1 week
[12] = 40° C./75% RH, open container, 2 weeks
[13] = 60° C., tight container, 1 week
[14] = 60° C., tight container, 2 weeks

Structure (SMILES): C#Cc1c(F)ccc2cc(O)cc(-c3ncc4c(N5CC6CCC(C5)N6)nc(OC[C@@]56CCCN5C[C@H](F)C6)nc4c3F)c12 [Amorphous]
stability under the conditions tested (conclusion) [1]: not stable
Moisture ([1]; 25° C./60% RH, 1M): 3.4 % w/w
Assay ([1]; 25° C./60% RH, 1M, by HPLC): 89.5 w/w %
Total Impurities ≥ 0.05% ([1]; 25° C./60% RH, 1M, by HPLC): 4.35 Area %
Moisture ([1]; 25° C./60% RH, 2M): 4.2 % w/w
Assay ([1]; 25° C./60% RH, 2M, by HPLC): 87.7 w/w %
Total Impurities ≥ 0.05% ([1]; 25° C./60% RH, 2M, by HPLC): 4.74 Area %
Moisture ([1]; 25° C./60% RH, 3M): 4.6 % w/w
Assay ([1]; 25° C./60% RH, 3M, by HPLC): 86.1 w/w %
Total Impurities ≥ 0.05% ([1]; 25° C./60% RH, 3M, by HPLC): 6.13 Area %
Moisture ([1]; 40° C./75% RH, 1M): 2.7 % w/w
Assay ([1]; 40° C./75% RH, 1M, by HPLC): 82.8 w/w %
Total Impurities ≥ 0.05% ([1]; 40° C./75% RH, 1M, by HPLC): 8.03 Area %
Moisture ([1]; 40° C./75% RH, 2M): 5.2 % w/w
Assay ([1]; 40° C./75% RH, 2M, by HPLC): 70.1 w/w %
Total Impurities ≥ 0.05% ([1]; 40° C./75% RH, 2M, by HPLC): 13.21 Area %
Assay [1, 5]: 70 w/w %
Total Impurities ≥ 0.05% [1, 5]: 13.2 Area %
Moisture ([1]; 40° C./75% RH, 3M): 5.8 % w/w
Assay ([1]; 40° C./75% RH, 3M, by HPLC): 61.3 w/w %
Total Impurities ≥ 0.05% ([1]; 40° C./75% RH, 3M, by HPLC): 17.75 Area %
Assay [1, 6]: 61 w/w %
Total Impurities ≥ 0.05% [1, 6]: 17.8 Area %
Moisture ([1]; T(0)): 2.9 % w/w
Total Impurities ≥ 0.05% ([1]; T(0), by HPLC): 2.24 Area %
Total Impurities ≥ 0.05% ([1]; T(0), by HPLC, listed as amorphous): 2.2 Area %
Assay ([1]; T(0), by Q-NMR): 94.2^b w/w %
Assay ([1]; T(0), by Q-NMR, listed as amorphous): 94 w/w %
trend of impurity values and assay results [1]: substantial increases in impurity values and corresponding decreases in assay results

Bulk (UPLC) purity [2, 7]: 98.0%
Bulk (UPLC) purity [2, 8]: 98.0%
Bulk (XRPD) form [2, 8]: No form change
Bulk color [2, 8]: no change of color
Bulk (UPLC) purity [2, 9]: 97.9%
Bulk (UPLC) purity [2, 10]: 98.1%
Bulk (XRPD) form [2, 10]: No form change
Bulk color [2, 10]: no change of color
Bulk (UPLC) purity [2, 11]: 97.8%
Bulk (XRPD) form [2, 11]: No form change
Bulk (UPLC) purity [2, 12]: 98.0%
Bulk (XRPD) form [2, 12]: No form change
Bulk color [2, 12]: no change of color
Bulk (UPLC) purity [2, 13]: 97.9%
Bulk (UPLC) purity [2, 14]: 98.1%
Bulk (XRPD) form [2, 14]: No form change
Bulk color [2, 14]: no change of color
Initial Purity by UPLC [2]: 97.9%
onset of degradation as estimated by TGA [3]: about 190 °C
weight loss observed by TGA ([3]; before 190° C. (onset of degradation)): about 0.5%
weight loss observed by TGA ([3]; before 190° C. (onset of degradation), listed as MRTX1133 Form IX): 0.5% weight loss observed
stability under the conditions tested (conclusion) [1]: much more stable; also recorded: stable
Moisture ([1]; 25° C./60% RH, 1M): 0.56 % w/w
Assay ([1]; 25° C./60% RH, 1M, by HPLC): 98.0 w/w %
Total Impurities ≥ 0.05% ([1]; 25° C./60% RH, 1M, by HPLC): 1.5 Area %
Moisture ([1]; 25° C./60% RH, 2M): 0.65 % w/w
Assay ([1]; 25° C./60% RH, 2M, by HPLC): 97.6 w/w %
Total Impurities ≥ 0.05% ([1]; 25° C./60% RH, 2M, by HPLC): 1.4 Area %
Moisture ([1]; 25° C./60% RH, 3M): 0.70 % w/w
Assay ([1]; 25° C./60% RH, 3M, by HPLC): 98.2 w/w %
Total Impurities ≥ 0.05% ([1]; 25° C./60% RH, 3M, by HPLC): 1.7 Area %
Moisture ([1]; 25° C./60% RH, 6M): 0.66 % w/w
Assay ([1]; 25° C./60% RH, 6M, by HPLC): 98.5 w/w %
Total Impurities ≥ 0.05% ([1]; 25° C./60% RH, 6M, by HPLC): 1.7 Area %
moisture content trend ([1]; 40° C./75% RH): relatively stable
Moisture ([1]; 40° C./75% RH, 1M): 0.56 % w/w
Assay ([1]; 40° C./75% RH, 1M, by HPLC): 97.6 w/w %
Total Impurities ≥ 0.05% ([1]; 40° C./75% RH, 1M, by HPLC): 1.8 Area %
Moisture ([1]; 40° C./75% RH, 2M): 0.63 % w/w
Assay ([1]; 40° C./75% RH, 2M, by HPLC): 97.3 w/w %
Total Impurities ≥ 0.05% ([1]; 40° C./75% RH, 2M, by HPLC): 1.8 Area %
Moisture ([1]; 40° C./75% RH, 3M): 0.66 % w/w
Assay ([1]; 40° C./75% RH, 3M, by HPLC): 96.5 w/w %
Total Impurities ≥ 0.05% ([1]; 40° C./75% RH, 3M, by HPLC): 2.0 Area %
Moisture ([1]; 40° C./75% RH, 6M): 0.70 % w/w
Assay ([1]; 40° C./75% RH, 6M, by HPLC): 96.9 w/w %
Total Impurities ≥ 0.05% ([1]; 40° C./75% RH, 6M, by HPLC): 2.3 Area %
Moisture ([1]; T(0)): 0.94 % w/w
Assay ([1]; T(0), by HPLC): 96.2 w/w %
Total Impurities ≥ 0.05% ([1]; T(0), by HPLC): 1.2 Area %
Structure (SMILES): C#Cc1c(F)ccc2cc(O)cc(-c3ncc4c(N5C[C@H]6CC[C@@H](C5)N6)nc(OC[C@@]56CCCN5C[C@H](F)C6)nc4c3F)c12 [Form IX, 4-(4-((1R,5S)-3,8-diazabicyclo[3.2.1]octan-3-yl)-8-fluoro-2-(((2R,7aS)-2-fluorohexahydro-1H-pyrrolizin-7a-yl)methoxy)pyrido[4,3-d]pyrimidin-7-yl)-5-ethynyl-6-fluoronaphthalen-2-ol]
trend of impurity values and assay results [1]: no increases in impurity values and no decreases in assay results

Bulk (UPLC) purity [2, 7]: 98.0%
Bulk (UPLC) purity [2, 8]: 98.0%
Bulk (XRPD) form [2, 8]: No form change
Bulk color [2, 8]: no change of color
Bulk (UPLC) purity [2, 9]: 98.1%
Bulk (UPLC) purity [2, 10]: 98.0%
Bulk (XRPD) form [2, 10]: No form change
Bulk color [2, 10]: no change of color
Bulk (UPLC) purity [2, 11]: 98.0%
Bulk (XRPD) form [2, 11]: No form change
Bulk (UPLC) purity [2, 12]: 98.1%
Bulk (XRPD) form [2, 12]: No form change
Bulk color [2, 12]: no change of color
Bulk (UPLC) purity [2, 13]: 98.1%
Bulk (UPLC) purity [2, 14]: 98.1%
Bulk (XRPD) form [2, 14]: No form change
Bulk color [2, 14]: no change of color
Initial Purity by UPLC [2]: 98.0%
onset of degradation as estimated by TGA [3]: about 180 °C
weight loss observed by TGA ([3]; before 180° C. (onset of degradation)): about 0.7%
weight loss observed by TGA ([3]; before 180° C. (onset of degradation), listed as MRTX1133 Form VIII): 0.7% weight loss observed
water uptake by DVS [4]: about 1.3%
water uptake by DVS ([4]; listed as MRTX1133 Form VIII): 1.3% water uptake at
stability under the conditions tested (conclusion) [1]: much more stable; also recorded: stable
Moisture ([1]; 25° C./60% RH, 1M): 0.64 % w/w
Assay ([1]; 25° C./60% RH, 1M, by HPLC): 96.8 w/w %
Total Impurities ≥ 0.05% ([1]; 25° C./60% RH, 1M, by HPLC): 2.1 Area %
Moisture ([1]; 25° C./60% RH, 3M): 0.49 % w/w
Assay ([1]; 25° C./60% RH, 3M, by HPLC): 97.3 w/w %
Total Impurities ≥ 0.05% ([1]; 25° C./60% RH, 3M, by HPLC): 2.1 Area %
Moisture ([1]; 25° C./60% RH, 6M): 0.53 % w/w
Assay ([1]; 25° C./60% RH, 6M, by HPLC): 96.4 w/w %
Total Impurities ≥ 0.05% ([1]; 25° C./60% RH, 6M, by HPLC): 1.9 Area %
moisture content trend ([1]; 40° C./75% RH): relatively stable
Moisture ([1]; 40° C./75% RH, 1M): 0.62 % w/w
Assay ([1]; 40° C./75% RH, 1M, by HPLC): 96.6 w/w %
Total Impurities ≥ 0.05% ([1]; 40° C./75% RH, 1M, by HPLC): 2.2 Area %
Moisture ([1]; 40° C./75% RH, 3M): 0.54 % w/w
Assay ([1]; 40° C./75% RH, 3M, by HPLC): 97.4 w/w %
Total Impurities ≥ 0.05% ([1]; 40° C./75% RH, 3M, by HPLC): 2.3 Area %
Moisture ([1]; 40° C./75% RH, 6M): 0.78 % w/w
Assay ([1]; 40° C./75% RH, 6M, by HPLC): 96.1 w/w %
Total Impurities ≥ 0.05% ([1]; 40° C./75% RH, 6M, by HPLC): 2.2 Area %
Moisture ([1]; T(0)): 0.55 % w/w
Assay ([1]; T(0), by HPLC): 96.9 w/w %
Total Impurities ≥ 0.05% ([1]; T(0), by HPLC): 2.5 Area %
Structure (SMILES): C#Cc1c(F)ccc2cc(O)cc(-c3ncc4c(N5C[C@H]6CC[C@@H](C5)N6)nc(OC[C@@]56CCCN5C[C@H](F)C6)nc4c3F)c12 [Form VIII, 4-(4-((1R,5S)-3,8-diazabicyclo[3.2.1]octan-3-yl)-8-fluoro-2-(((2R,7aS)-2-fluorohexahydro-1H-pyrrolizin-7a-yl)methoxy)pyrido[4,3-d]pyrimidin-7-yl)-5-ethynyl-6-fluoronaphthalen-2-ol]
trend of impurity values and assay results [1]: no increases in impurity values and no decreases in assay results
